{"source": "patent US4473573A", "about": "“N-(2-methoxyethyl)-noroxymorphone and pharmaceutical compositions for relieving pain containing same” (Boehringer Ingelheim KG, priority 1982, dated 1984)", "key": {"[1]": {"assay": "writhing test (analgesic property)", "format": "in vivo", "conditions": "s. c.; for ED50: sc"}, "[2]": {"test_system": "morphine-dependent monkeys", "assay": "withdrawal test in morphine-dependent monkeys", "format": "in vivo", "text": "(§1) The non-morphine-like activity profile can be recognized from the absence of typical side effects produced by opiates.\nIn morphine-dependent monkeys there is found to be increased sensitivity of morphine antagonists which trigger withdrawal symptoms, dependent upon dosage."}, "[3]": {"test_system": "analgesia produced by morphine", "assay": "Haffner test, reversal of the analgesia produced by morphine", "format": "in vivo", "conditions": "s. c.; for ED50: sc, read-out: AD50, Haffner test"}, "[4]": {"assay": "acute toxicity (LD50)", "conditions": "mouse, in vivo, sc; s. c., mice", "text": "(§2) The comparison values are 1600 for the standard analgesic morphine and 169 for the agonist-antagonist pentazocine which is used therapeutically as an analgesic."}, "[5]": {"test_system": "mice", "assay": "therapeutic range based upon the effect in the writhing test", "format": "in vivo", "conditions": "LD50 s. c. based upon the effect in the writhing test", "text": "as §2"}, "[6]": {"test_system": "mice", "assay": "inhibition of locomotion (sedation)", "format": "in vivo", "conditions": "up to 100 mg/kg for Formula I, comparison substances in or near the therapeutic dosage range", "text": "Another advantage of the compound of Formula I over newer substances, not yet used therapeutically, selected from the opioid kappa agonists of the benzomorphane series, to which a high therapeutic range is also ascribed (for example, 1800 for ethylketazocine), is the absence of any strong sedation. This can be recognized in the comparison substances as an inhibition of locomotion in mice in or near the therapeutic dosage range. In the compound of Formula I, however, this effect was not observed in the range tested up to very high doses of 100 mg/kg."}, "[7]": {"assay": "activity compared with the compound of Formula I (test not named)", "conditions": "for activity relative to the compound of Formula I: compound of Formula I = 1; for effect of etherification of the phenolic hydroxy group on activity: compared with Formula I"}, "[8]": {"assay": "Straub morphine tail phenomenon / compulsive circular motion (typical opiate side effects)", "format": "in vivo", "conditions": "hydrochloride", "text": "as §1"}, "[9]": {"test_system": "mice", "conditions": "ascribed; opioid kappa agonist of the benzomorphane series; cited from earlier work"}, "[10]": {"conditions": "cited from earlier work"}}, "note": "Structures can show the parent of a compound that is named as a salt. Where two headings read alike, the source gives them in different places."}
{"smiles": "COCCN1CC[C@]23c4c5ccc(O)c4O[C@H]2C(=O)CC[C@@]3(O)[C@H]1C5", "note": "[Formula I, N-(2-methoxyethyl)-noroxymorphone]", "values": [{"measurement": "times stronger than morphine, writhing test", "setting": "[1]; relative to morphine", "result": "about 36 times"}, {"measurement": "times stronger than oxymorphone, writhing test", "setting": "[1]; relative to oxymorphone", "result": "about 2.5 times"}, {"measurement": "ED50", "setting": "[1]", "result": 0.013, "unit": "mg/kg"}, {"measurement": "antagonist strength compared with naloxone", "setting": "[2]; morphine-dependent monkeys, triggering of withdrawal symptoms", "result": "as strong as naloxone"}, {"measurement": "antagonistic activity relative to naloxone", "setting": "[3]; Haffner test, naloxone = 1", "result": "about 1/10"}, {"measurement": "ED50", "setting": "[3]", "result": 0.3, "unit": "mg/kg"}, {"measurement": "LD50", "setting": "[4]", "result": 1350, "unit": "mg/kg"}, {"measurement": "therapeutic range", "setting": "[5]", "result": "103,846"}, {"measurement": "inhibition of locomotion (strong sedation)", "setting": "[6]", "result": "not observed"}]}
{"smiles": "CCOCCN1CC[C@]23c4c5ccc(O)c4O[C@H]2C(=O)CC[C@@]3(O)[C@H]1C5", "note": "[Formula IIIa]", "values": [{"measurement": "activity relative to the compound of Formula I", "setting": "[7]", "result": "1/20"}]}
{"smiles": "COCCN1CC[C@]23c4c5ccc(OC)c4O[C@H]2C(=O)CC[C@@]3(O)[C@H]1C5", "note": "[Formula IIIb]", "values": [{"measurement": "effect of etherification of the phenolic hydroxy group on activity", "setting": "[7]", "result": "reduces the activity"}, {"measurement": "activity relative to the compound of Formula I", "setting": "[7]", "result": "1/84"}]}
{"smiles": "CCOCCN1CC[C@]23c4c5ccc(OC)c4O[C@H]2C(=O)CC[C@@]3(O)[C@H]1C5", "note": "[Formula IIIc]", "values": [{"measurement": "effect of etherification of the phenolic hydroxy group on activity", "setting": "[7]", "result": "reduces the activity"}]}
{"smiles": "COCCCN1CC[C@]23c4c5ccc(O)c4O[C@H]2C(=O)CC[C@@]3(O)[C@H]1C5", "note": "[Formula IIId]", "values": [{"measurement": "activity relative to the compound of Formula I", "setting": "[7]", "result": "1/25"}]}
{"smiles": "COCCN1CC[C@]23c4c5ccc(O)c4O[C@H]2C(=O)CC[C@@]3(O)[C@H]1C5", "note": "[N-(2-methoxyethyl)-noroxymorphone hydrochloride]", "values": [{"measurement": "Straub morphine tail phenomenon", "setting": "[8]", "result": "does not show"}, {"measurement": "compulsive circular motion", "setting": "[8]", "result": "does not show"}, {"measurement": "relieving the withdrawal symptoms in morphine-dependent monkeys", "setting": "[2]; after morphine has been withdrawn, hydrochloride", "result": "not capable of relieving the withdrawal symptoms"}, {"measurement": "effect on withdrawal symptoms (antagonist behaviour)", "setting": "[2]; morphine-dependent monkeys, hydrochloride", "result": "aggravates the withdrawal symptoms"}]}
{"smiles": "CC[C@]12CCN(CC3CC3)[C@H](C(=O)c3ccc(O)cc31)[C@@H]2C", "note": "[ethylketazocine]", "values": [{"measurement": "therapeutic range", "setting": "[9]", "result": 1800}]}
{"smiles": "CN1CC[C@]23c4c5ccc(O)c4O[C@H]2[C@@H](O)C=C[C@H]3[C@H]1C5", "note": "[morphine, reference compound]", "values": [{"measurement": "ED50, writhing test", "setting": "[1]", "result": 0.47, "unit": "mg/kg"}, {"measurement": "therapeutic range", "setting": "[5]", "result": 1600}]}
{"smiles": "C=CCN1CC[C@]23c4c5ccc(O)c4O[C@H]2C(=O)CC[C@@]3(O)[C@H]1C5", "note": "[naloxone, reference compound]", "values": [{"measurement": "ED50", "setting": "[3]", "result": 0.03, "unit": "mg/kg"}]}
{"smiles": "O=C1CC[C@@]2(O)[C@H]3Cc4ccc(O)c5c4[C@@]2(CCN3CC2CC2)[C@H]1O5", "note": "[naltrexone]", "values": [{"measurement": "antagonist character", "setting": "[10]; in vivo", "result": "pure antagonists"}, {"measurement": "analgesic activity", "setting": "[10]; pure antagonists", "result": "no analgesic activity"}]}
{"smiles": "CN1CC[C@]23c4c5ccc(O)c4O[C@H]2C(=O)CC[C@@]3(O)[C@H]1C5", "note": "[oxymorphone]", "values": [{"measurement": "ED50", "setting": "[1]", "result": 0.032, "unit": "mg/kg"}]}
{"smiles": "CC(C)=CCN1CCC2(C)c3cc(O)ccc3CC1C2C", "note": "(centres unmarked) [pentazocine]", "values": [{"measurement": "therapeutic range", "setting": "[5]", "result": 169}]}
